According to publication PMC12414870, “First‐in‐class inhibitors of SbnA reduce siderophore production in Staphylococcus aureus” (The Febs Journal, 2025):

Tests used:
[1] = target: T1, SbnA (Staphylococcus aureus, UniProt A6QDA0); assay: PNP-coupled continuous assay, global fit to ping-pong with substrate inhibition; format: biochemical; details: substrate inhibition (unproductive binding to internal aldimine); 0.035-0.720 mM L-OPS; 50 mM HEPES pH 7.8, 1 mM TCEP, 25 °C
T1 construct: synthetic codon-optimised gene in pSH21p::TrxA, His-Trx tag with TEV site, tag cleaved and removed; expressed in E. coli BL21 ArcticExpress (DE3)

[2] = target: T1, SbnA; assay: PNP-coupled continuous assay (MESG, […] nm), global fit; format: biochemical
[3] = target: T1, SbnA; assay: PNP-coupled continuous assay (MESG, […] nm); format: biochemical
[4] = tested on: N[C@@H](COP(=O)(O)O)C(=O)O; assay: purified protein; details: co-substrate L-Glu 0.1-150 mM, 50 mM HEPES pH 7.8, 1 mM TCEP, 25 °C

T1 sequence (A6QDA0 whole entry): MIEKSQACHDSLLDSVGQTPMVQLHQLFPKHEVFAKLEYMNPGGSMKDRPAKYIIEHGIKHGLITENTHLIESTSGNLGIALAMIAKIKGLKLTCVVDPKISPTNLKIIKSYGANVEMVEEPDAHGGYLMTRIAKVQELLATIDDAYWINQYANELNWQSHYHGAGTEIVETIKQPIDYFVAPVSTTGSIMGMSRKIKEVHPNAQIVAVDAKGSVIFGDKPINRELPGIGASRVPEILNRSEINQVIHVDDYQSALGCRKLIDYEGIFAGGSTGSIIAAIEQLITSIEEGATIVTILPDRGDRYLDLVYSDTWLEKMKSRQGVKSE

For `N[C@@H](CCC(=O)O)C(=O)O` [L-glutamate], the “Ki” value [1] was 25750 ± 7930 µM.
In the case of `O=C(O)CC(O)(CC(=O)O)C(=O)O` [citrate], the Ki [2] is reported as 900 ± 200 µM and the IC50 [3] is reported as 800 ± 100 µM.
For `O=C(O)CCC(=O)C(=O)O` [α-ketoglutarate], the IC50 [3] was 2600 ± 200 µM.
For `O=C(O)CC(C(=O)O)c1ccccc1` (racemic) [compound 2, 2-phenylsuccinic acid], the Ki [2] was 124 ± 13 µM and the IC50 [3] was 366 ± 37 µM.
For “SbnA (Staphylococcus aureus subsp. aureus str. Newman)”, the Km [4] was 27 ± 6 µM and the kcat/Km [4] was 170000 M⁻¹ s⁻¹.
`O=C(O)/C=C(\C(=O)O)c1ccccc1` [compound 3, Z-2-phenylbut-2-enedioic acid] showed a Ki [2] of 16 ± 2 µM and an IC50 [3] of 37 ± 3 µM.
